Measured values taken from patent publication US20240240145A1, “METHODS AND COMPOSITIONS FOR GENERATING MITOCHONDRIA REPLACED LYMPHOID CELLS” (Imel Biotherapeutics, Inc., priority 2021, published 2024).

Assays:
mouse NZB T cells = assay: TaqMan SNP assay of replacement of NZB T cell mtDNA with B6 MEF mtDNA after culture with rapamycin; assay type: cell-based; settings: 40 μg B6 MEF mitochondria
Experimental: Isolation and Cell Culture of Primary Mouse T lymphocytes: All the animal experiments were performed according to the animal experiment guidelines issued by the Animal Care and Use Committee of our institution (M2019-536). For mouse T lymphocytes isolation, spleens were removed from mouse after anesthetized and sacrificed. Spleens were washed with PBS (FUJIFILM Wako Pure Chemical Corp.), then mashed and filtrated to extract splenocytes. Mouse T cells were highly purified from splenocytes by immunomagnetic negative selection using EasySep mouse T cell isolation kit (Veritas, Santa Clara, CA, USA) according to the manufacturer's recommendations. Isolated mouse T cells were cultured in Advanced RPMI1640 medium supplemented with 10% FBS, 1% penicillin/streptomycin, 20 mM L-glutamine (Thermo Fisher Scientific incorporated), […] recombinant human IL-2 (PeproTech, Rocky Hill, NJ, USA), which is activated with Dynabeads mouse T-activator CD3/CD28 (Thermo Fisher Scientific incorporated). Cells were incubated at 37 °C in a humidified 5% CO2 incubator.
Mitochondrial Isolation and Transfer to Mouse T cells: Mitochondria were isolated from B6 murine embryonic fibroblasts (MEF). […] The amounts of isolated mitochondria were expressed as protein concentration using a Bio-Rad protein assay kit (Bio-Rad Laboratories, incorporated, Richmond, CA, USA). […]

human GJ T cells = assay: TaqMan SNP assay of transfer of EPC100 mitochondria to human GJ T cells cultured with rapamycin; assay type: cell-based; settings: for portion of donor mtDNA detected in T cells: after 7 days, EPC100 donor mitochondria
Experimental: Isolation and Cell Culture of Human T cells: Venous heparinized blood was taken according to the standard procedures from the median cubital vein. Human peripheral blood mononuclear cells (PBMC) were isolated from human peripheral blood using density-gradient centrifugation with 1.077 g/ml percoll (GE Healthcare Life Sciences, Buckinghamshire, England). Cells were cultured in TexMACS medium (Miltenyi Biotec) supplemented with 10% fetal bovine serum, 1% penicillin/streptomycin (Thermo Fisher Scientific incorporated), […] of IL-7, and […] of IL-15 on cell culture plates coated with anti-CD3 antibody and anti-CD28 antibody (Miltenyi Biotec). Cells were incubated at 37° C. in a humidified 5% CO2 incubator.
Mitochondrial Isolation and Transfer to Human T cells: The immortalized human uterine endometrial gland-derived mesenchymal cell line, EPC100 (Japanese Collection of Research Bioresources Cell Bank, JCRB1538) was used as an exemplary donor of exogenous mitochondria for mitochondrial transfer to human primary T cells by using the same protocol as that of murine protocol.
TaqMan Single Nucleotide Polymorphism (SNP) Assay: Based upon the differences in the mitochondrial HVR1 sequences of human GJ T cells and EPC100 cells, and the mitochondrial ND1 of B6 mouse and NZB mouse, the probes and primer set forth in Tables 1 and 2 were designed, which provide sensitivity and specificity in the TaqMan SNP assay. To determine mutation ratios, we designed wild-type and mutant allele-specific TaqMan probes for the TaqMan SNP assay. The extracted DNA (1 ng) was used for quantitative PCR with the TaqMan Universal PCR Master Mix kit (Thermo Fisher Scientific Incorporated) on a CFX connect real-time system (Bio-Rad Laboratories, Incorporated) under the following conditions: 40 cycles of PCR (95° ° C. for 15 see and 60° ° C. for 1 min) after initial denaturation (95° ° C. for 10 min). […] The mtDNA copy number was estimated from the content ratio of 12S rRNA on mtDNA and ACTB (or Actb) on nuclear DNA by delta cycle threshold-based relative quantification. […]

In the case of `CO[C@H]1C[C@@H]2CC[C@@H](C)[C@@](O)(O2)C(=O)C(=O)N2CCCC[C@H]2C(=O)O[C@H]([C@H](C)C[C@@H]2CC[C@@H](O)[C@H](OC)C2)CC(=O)[C@H](C)/C=C(\C)[C@@H](O)[C@@H](OC)C(=O)[C@H](C)C[C@H](C)/C=C/C=C/C=C/1C` [rapamycin], the “donor mtDNA in the recipient T cells” value (mouse NZB T cells; centrifugation and two days of rapamycin treatment (100-1000 nM), FIG. 5A) is reported as 45-80%, the “donor mtDNA in the recipient T cells” value (mouse NZB T cells; day 7, rapamycin 100-1000 nM, FIG. 5B) is reported as 70-90% and the “portion of donor mtDNA detected in T cells” value (human GJ T cells; 50 nM rapamycin) is reported as “less than 40%”. For the same compound, the “portion of donor mtDNA detected in T cells” value (human GJ T cells; 500 nM rapamycin) was “approximately 50%” and the “mtDNA content in T cells consisting of mtDNA from EPC100 cells” value (human GJ T cells; human GJ T cells contacted with EPC100 donor mitochondria in the presence of rapamycin (50 to 500 nM), no mtDNA depletion, FIG. 3B) was 40-50%.
